The text below walks through data of patent US7666836B2, “Method for the therapeutic management of endometriosis” (priority 1999, dated 2010).

The test system of series [1] is patients with endometriosis. Particulars: 3 mg s.c. per week over eight weeks; stages rAFS I-II; cited from earlier work.
Series [2] has as its system patients with confirmed endometriosis. Nature of the series: weekly Cetrorelix acetate treatment of nine patients with confirmed endometriosis (FIG. 1). The class given is in vivo, human. Particulars: 3 mg s.c. weekly for 8 weeks; for hot flushes or other (estradiol) withdrawal symptoms: patients with endometriosis.
Series [3] relates to patients with endometriosis. Nature of the series: weekly Cetrotide s.c. over eight weeks in endometriosis patients with symptomatic pain. The class given is in vivo, human. Particulars: 3 mg s.c. per week over eight weeks. The procedure: Aim of the medicinal therapy of patients with endometriosis with symptomatic pain is to obtain a treatment without side effects, especially avoiding the negative effects of estrogen suppression and which is long-lasting after finishing therapy. The specific pharmacological mode of action of LHRH antagonists allows new possibilities for treatment of endometriosis.
The weekly administration of an adequate dose of an LHRH antagonist, e.g. 3 mg Cetrotide® s.c./per week over a period of eight weeks leads to a controlled suppression of estrogen secretion so that serum concentrations between about 35 pg/ml and about 80 pg/ml, preferably between about 45-75 pg/ml, more preferably between about 50-75 pg/ml are obtained. […] Also the development of osteoporosis can be avoided.

Another series deals with estradiol serum levels. Nature of the series: estradiol serum levels after weekly administration of cetrorelix (FIG. 2). The class given is in vivo. The text has this:
[…] The estradiol serum levels are between about 35-80 pg/ml, preferably between about 45-75 pg/ml, more preferably between about 50-75 pg/ml.

Non-standard residues stand in square brackets, D forms with d. Residues, ends and D or L forms follow the SMILES beside them. dPhe(4-Cl) = N[C@H](Cc1ccc(Cl)cc1)C(=O)O; d2Nal = N[C@H](Cc1ccc2ccccc2c1)C(=O)O; dCit = NC(=O)NCCC[C@@H](N)C(=O)O; d3Pal = N[C@H](Cc1cccnc1)C(=O)O

On to `CC(=O)N[C@H](Cc1ccc2ccccc2c1)C(=O)N[C@H](Cc1ccc(Cl)cc1)C(=O)N[C@H](Cc1cccnc1)C(=O)N[C@@H](CO)C(=O)N[C@@H](Cc1ccc(O)cc1)C(=O)N[C@H](CCCNC(N)=O)C(=O)N[C@@H](CC(C)C)C(=O)N[C@@H](CCCNC(=N)N)C(=O)N1CCC[C@H]1C(=O)N[C@H](C)C(N)=O` [Cetrorelix acetate] (Ac-[d2Nal][dPhe(4-Cl)][d3Pal]SY[dCit]LRP[dA]-NH2), for which the “clinical regression of the disease (decrease of the implantation area)” value in series [1] is given as “clinical regression of the disease”. Also, in series [2], the “proliferation of the endometrium at the end of treatment (histological biopsies)” value is reported as “no proliferation of the endometrium” and the “hot flushes or other (estradiol) withdrawal symptoms” value is “avoiding any hot flushes or other withdrawal symptoms”. Also, in series [2] (listed as Cetrorelix), the “proliferation of the endometrium at the end of treatment (histological biopsies)” value is on record as “without proliferation of the endometrium” and the “hot flushes or other (estradiol) withdrawal symptoms” value was “without any signs of estradiol withdrawal symptoms”. Moreover, in series [2] (nine patients), the ovarian cyst formation entry is on record as “No ovarian cyst formation occurred” and the “progress of the disease confirmed by 2nd look laparascopy” value is “without any progress of the disease”. Further, the symptomatic pain result in series [3] (all stages of the disease (rAFS I-IV)) is “effectively suppressed”. Further, in series [3] (serum concentration range about 35-80 pg/ml), the vegetative symptoms result is “no vegetative symptoms arise”. Further, in the series with estradiol serum levels (weekly dose of 1 mg once per week), the “estradiol serum levels (FIG. 2)” value was 35 to 80 pg/mL. In addition, the “estradiol serum levels (FIG. 2)” value in the series on estradiol serum levels (weekly dose of 3 mg once per week) is 35 to 80 pg/mL.
